Reference: ChEMBL document CHEMBL3351230, “Synthesis of 2-anilinopyridine dimers as microtubule targeting and apoptosis inducing agents” (Bioorg Med Chem, 2014)

Tests used:
A549 = assay: Antiproliferative activity against human A549 cells assessed as growth inhibition after 48 hrs by SRB assay; conditions: A549, 48 h
DU-145 = assay: Antiproliferative activity against human DU145 cells assessed as growth inhibition after 48 hrs by SRB assay; conditions: DU-145, 48 h
MCF7 = assay: Antiproliferative activity against human MCF7 cells assessed as growth inhibition after 48 hrs by SRB assay; conditions: MCF7, 48 h

Compound | GI50 (A549) | GI50 (DU-145) | GI50 (MCF7)
COc1ccc(Nc2ncccc2C(=O)Nc2cccnc2Nc2ccc(F)cc2)cc1 | 18.5 µM | > 100 µM | 17.3 µM
COc1ccc(Nc2ncccc2NC(=O)c2cccnc2Nc2ccc(F)cc2)cc1 | 4.1 µM | 6.6 µM | > 100 µM
O=C(Nc1cccnc1Nc1ccc(Cl)cc1)c1cccnc1Nc1cc(C(F)(F)F)cc(C(F)(F)F)c1 | 3.9 µM | 3.1 µM | 10.5 µM
COc1cc(Nc2ncccc2C(=O)Nc2cccnc2Nc2ccc(F)cc2)cc(OC)c1OC | > 100 µM | 7 µM | > 100 µM
O=C(Nc1cccnc1Nc1ccccc1)c1cccnc1Nc1ccc(F)cc1 | > 100 µM | 7.7 µM | > 100 µM
O=C(Nc1cccnc1Nc1ccc(Cl)cc1)c1cccnc1Nc1ccc(F)cc1 | > 100 µM | 4.1 µM | > 100 µM
COc1cc(Nc2ncccc2C(=O)Nc2cccnc2Nc2ccccc2)cc(OC)c1OC | 6 µM | > 100 µM | > 100 µM
COc1ccc(Nc2ncccc2NC(=O)c2cccnc2Nc2cc(OC)c(OC)c(OC)c2)cc1 | > 100 µM | > 100 µM | > 100 µM
